# According to PubChem BioAssay AID2060612 (Molecular Pharmacology Branch, DTP, NCI, 2025):
# Tested on: 565232-114-T-J1-PDC complex spheroid viability
# Experiment: Anticancer human tumor 565232-114-T-J1-PDC patient-derived bladder carcinoma cell line growth inhibition [CLK]
# Details: for IC50: curve of first compound; for viability, T/C: stronger effect = lower value
# Summary of the method: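 Patient-derived tumor cells grown as complex spheroids with HUVEC endothelial cells and mesenchymal stem cells, treated with drug combinations. Concentrations descend in half-log steps from near clinical Cmax, or from 10 microM if Cmax unknown.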
# [1] = second compound 0.0316 µM, first compound 0.0316 µM
# [2] = second compound 0.0316 µM, first compound 0.1 µM
# [3] = second compound 0.1 µM, first compound 0.0316 µM
# [4] = second compound 0.1 µM, first compound 0.1 µM
# [5] = second compound 0.316 µM, first compound 0.0316 µM
# [6] = second compound 0.316 µM, first compound 0.1 µM
# [7] = second compound 1 µM, first compound 0.0316 µM
# [8] = second compound 1 µM, first compound 0.1 µM
# [9] = second compound 3.16 µM, first compound 0.0316 µM
# [10] = second compound 3.16 µM, first compound 0.1 µM
# [11] = second compound 10 µM, first compound 0.0316 µM
# [12] = second compound 10 µM, first compound 0.1 µM
# 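Note: spheroids exposed to compounds for 7 days before readout.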
# 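Throughout, for viability, T/C: 100% = DMSO vehicle wells with luminescence normalized to vehicle control.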
smiles,measurement,setting,value
Cn1ncnc1[C@H]1c2n[nH]c(=O)c3cc(F)cc(c23)N[C@@H]1c1ccc(F)cc1 + CN1CCN(c2cc(C(=O)Nc3cc4cc(-c5cnn(C)c5)ccc4cn3)ccn2)CC1,IC50,second compound 0.0316 µM,> 100 nM
same,IC50,second compound 0.1 µM,> 100 nM
same,IC50,second compound 0.316 µM,< 0.316 nM
same,IC50,second compound 1 µM,< 0.316 nM
same,IC50,second compound 3.16 µM,< 0.316 nM
same,IC50,second compound 10 µM,< 0.316 nM
same,"viability, T/C","second compound 0.0316 µM, first compound 0.000316 µM",100%
same,"viability, T/C","second compound 0.0316 µM, first compound 0.001 µM",76.1%
same,"viability, T/C","second compound 0.0316 µM, first compound 0.00316 µM",91.5%
same,"viability, T/C","second compound 0.0316 µM, first compound 0.01 µM",82.1%
same,"viability, T/C",[1],135%
same,"viability, T/C",[2],102%
same,"viability, T/C","second compound 0.1 µM, first compound 0.000316 µM",86.2%
same,"viability, T/C","second compound 0.1 µM, first compound 0.001 µM",84.3%
same,"viability, T/C","second compound 0.1 µM, first compound 0.00316 µM",111%
same,"viability, T/C","second compound 0.1 µM, first compound 0.01 µM",112%
same,"viability, T/C",[3],110%
same,"viability, T/C",[4],90.9%
same,"viability, T/C","second compound 0.316 µM, first compound 0.000316 µM",16.9%
same,"viability, T/C","second compound 0.316 µM, first compound 0.001 µM",24%
same,"viability, T/C","second compound 0.316 µM, first compound 0.00316 µM",20.2%
same,"viability, T/C","second compound 0.316 µM, first compound 0.01 µM",21.3%
same,"viability, T/C",[5],21.5%
same,"viability, T/C",[6],19.5%
same,"viability, T/C","second compound 1 µM, first compound 0.000316 µM",0.16%
same,"viability, T/C","second compound 1 µM, first compound 0.001 µM",0.26%
same,"viability, T/C","second compound 1 µM, first compound 0.00316 µM",1.61%
same,"viability, T/C","second compound 1 µM, first compound 0.01 µM",0.19%
same,"viability, T/C",[7],1.31%
same,"viability, T/C",[8],0.83%
same,"viability, T/C","second compound 3.16 µM, first compound 0.000316 µM",0.42%
same,"viability, T/C","second compound 3.16 µM, first compound 0.001 µM",0.22%
same,"viability, T/C","second compound 3.16 µM, first compound 0.00316 µM",2.43%
same,"viability, T/C","second compound 3.16 µM, first compound 0.01 µM",0.14%
same,"viability, T/C",[9],1.43%
same,"viability, T/C",[10],2.75%
same,"viability, T/C","second compound 10 µM, first compound 0.000316 µM",0.15%
same,"viability, T/C","second compound 10 µM, first compound 0.001 µM",1.85%
same,"viability, T/C","second compound 10 µM, first compound 0.00316 µM",1.09%
same,"viability, T/C","second compound 10 µM, first compound 0.01 µM",1.69%
same,"viability, T/C",[11],0.53%
same,"viability, T/C",[12],1.35%
C=C(F)C(=O)N1CCN(c2nc(OCC3CCCN3C)nc3c2CCN(c2cccc4cccc(Cl)c24)C3)CC1CC#N (centres undefined) + CNC(=O)c1ccc(Nc2nc(OC3CCCC3)c3c(-c4ccc5nc(C)oc5c4)c[nH]c3n2)c(OC)c1,IC50,second compound 0.0316 µM,5870 nM
same,IC50,second compound 0.1 µM,3910 nM
same,IC50,second compound 0.316 µM,< 31.6 nM
same,IC50,second compound 1 µM,< 31.6 nM
same,IC50,second compound 3.16 µM,< 31.6 nM
same,IC50,second compound 10 µM,< 31.6 nM
same,"viability, T/C",[1],116%
same,"viability, T/C",[2],79.8%
same,"viability, T/C","second compound 0.0316 µM, first compound 0.316 µM",116%
same,"viability, T/C","second compound 0.0316 µM, first compound 1 µM",101%
same,"viability, T/C","second compound 0.0316 µM, first compound 3.16 µM",127%
same,"viability, T/C","second compound 0.0316 µM, first compound 10 µM",0.2%
same,"viability, T/C",[3],57.3%
same,"viability, T/C",[4],58.6%
same,"viability, T/C","second compound 0.1 µM, first compound 0.316 µM",53.5%
same,"viability, T/C","second compound 0.1 µM, first compound 1 µM",68.6%
same,"viability, T/C","second compound 0.1 µM, first compound 3.16 µM",68.4%
same,"viability, T/C","second compound 0.1 µM, first compound 10 µM",0.17%
same,"viability, T/C",[5],35.9%
same,"viability, T/C",[6],33.5%
same,"viability, T/C","second compound 0.316 µM, first compound 0.316 µM",34.2%
same,"viability, T/C","second compound 0.316 µM, first compound 1 µM",28.8%
same,"viability, T/C","second compound 0.316 µM, first compound 3.16 µM",37.1%
same,"viability, T/C","second compound 0.316 µM, first compound 10 µM",0.14%
same,"viability, T/C",[7],20.6%
same,"viability, T/C",[8],26.6%
same,"viability, T/C","second compound 1 µM, first compound 0.316 µM",29.4%
same,"viability, T/C","second compound 1 µM, first compound 1 µM",22.3%
same,"viability, T/C","second compound 1 µM, first compound 3.16 µM",22.9%
same,"viability, T/C","second compound 1 µM, first compound 10 µM",0.13%
same,"viability, T/C",[9],16.9%
same,"viability, T/C",[10],19.2%
same,"viability, T/C","second compound 3.16 µM, first compound 0.316 µM",17.3%
same,"viability, T/C","second compound 3.16 µM, first compound 1 µM",17.1%
same,"viability, T/C","second compound 3.16 µM, first compound 3.16 µM",17.4%
same,"viability, T/C","second compound 3.16 µM, first compound 10 µM",0.17%
same,"viability, T/C",[11],17.4%
same,"viability, T/C",[12],18.9%
same,"viability, T/C","second compound 10 µM, first compound 0.316 µM",16.9%
same,"viability, T/C","second compound 10 µM, first compound 1 µM",16.4%
same,"viability, T/C","second compound 10 µM, first compound 3.16 µM",18.4%
same,"viability, T/C","second compound 10 µM, first compound 10 µM",0.23%
